{"source": "patent US20250177558A1", "about": "“Functionalized Nanoclusters and Their Use in Treating Bacterial Infections” (priority 2022, published 2025)", "key": {"[1]": {"system": "Ofloxacin-induced persister cells of P. aeruginosa (PA14)", "assay": "Bactericidal activity against persister cells", "type": "cell-based, Pseudomonas aeruginosa", "conditions": "ATP up to 10 mM, persister cells 10^8 CFU/ml", "experimental": "Therefore, the 48-h-old-stationary phase was treated with Ofloxacin for 24 h to eradicate non-persister cells (FIG. 5A). Ofloxacin was used at 415 µM, corresponding to 30-fold the MIC for the PAO1 wild-type strain. The surviving persister cells were concentrated and redispersed in phosphate-buffered saline (PBS) to prevent persister cells from awakening from their metabolically repressed state.\nPersister cells of the P. aeruginosa (PA14) were isolated by treating 250 ml of stationary phase cultures with Ofloxacin (415 µM final concentration). After 24 h treatment, the samples were washed with PBS, and then persister cells were concentred in 10 ml of PBS. The number of persister cells was estimated by serially diluting to determine the colony-forming unit per millilitre (CFU/ml).\nAll the bactericidal tests were performed on PBS without a carbon source to prevent persister cells from waking up from their low metabolic activity. Ofloxacin-induced persister cells were challenged with antimicrobial agents at the concentrations listed in the text. After the survival bacteria were washed 3× with PBS, the pellet was resuspended in 100 μL of PBS and then spread on an LB plate. The plate was incubated for 72 h at 37° C. before assessing growth."}, "[2]": {"system": "Acinetobacter baumannii (A. baumannii)", "conditions": "ref [69], cited from earlier work"}, "PAO1Cip21": {"system": "PAO1Cip21", "assay": "Disc diffusion susceptibility (cross-resistance)", "type": "cell-based, Pseudomonas aeruginosa", "conditions": "isolate after 21 passages in subinhibitory Ciprofloxacin; 5 μg discs", "experimental": "In brief, glycerol stocks of each bacteria were streaked on LB plates and grown overnight at 37° C. An inoculum was prepared by diluting several individual colonies in PBS with a 0.5 McFarland Standard turbidity. The inoculum was then spread with sterile cotton swabs on Mueller Hinton agar plates supplemented with 5% sheep blood. Discs containing 5 μg of antipseudomonal drugs were dispensed on the surface of the plate. After 24 h incubation at 37° C., the inhibition zone was measured using a digital calliper."}, "P. aeruginosa (PAO1)": {"system": "P. aeruginosa (PAO1)", "type": "cell-based, Pseudomonas aeruginosa", "conditions": "21 passages in sub-MIC dosing; MIC at passage n/initial MIC", "experimental": "The fold change in minimum inhibitory concentration (MIC) was measured as the ratio between the MIC at passage n/initial MIC.\nTo test this idea, we repeated our serial passaging study with two biologically independent cultures of PAO1.\nSerial passage MICs were performed in 96-well microtiter panels. First, an aliquot of the well with the highest concentration permitting growth was taken and back diluted ( 1/100) in new media from inoculated microtiter panels. […] Panels were incubated according to CLSI guidelines, MICs were recorded, and the next inoculum was prepared from the well containing the highest drug concentration that identically allowed growth as described above. Twenty-one repeat passages were performed."}, "[3]": {"system": "stationary phase culture of P. aeruginosa (PA14)", "assay": "Intracellular reactive oxygen species (DCFH-DA)", "type": "cell-based, Pseudomonas aeruginosa", "conditions": "relative to PBS-treated group", "procedure": "FIGS. 12A-12B. […] (FIG. 12A) Schematic showing how intracellular ROS was determined using the fluorescent probe 2′,7′-dichlorofluorescein diacetate (DCFH-DA).\nCumulatively, the data in this section support that after transiting through OM, AuNC@ATP leads to the fusion of the inner leaflet of OM with the outer leaflet of the cytoplasmic membrane, which leads to bacteria death without cell lysis.\nDCFH-DA (2′,7′-dichlorofluorescein diacetate) dye was applied to test the intracellular ROS concentration, which could be cleaved by the intracellular non-specific esterase into the DCFH. DCFH, in the presence of ROS, would be further oxidized into fluorescent DCF (2′,7′-dichlorofluorescein). DCFH-DA in DMSO (10 μM) was added to the treated bacterial solution and further incubated at 37° C., 200 rpm for 15 min. After that, the bacterial cells were centrifuged at 8000 g for 5 min, washed three times with PBS, and resuspended in ultrapure water to the original volume (1 mL). The microplate reader was used to measure the concentration of the produced DCF at the excitation/emission wavelength of 488/525 nm. In this experiment, the fluorescence intensity of DCF directly reflects the amount of ROS generation. […] Finally, the relative ROS production level was calculated by normalizing the ROS level from the treated groups with the production level of the PBS-treated group."}, "[4]": {"system": "stationary phase culture of gram-negative bacteria", "conditions": "conventional antibiotics, refs [54-56]; cited from earlier work"}, "[5]": {"conditions": "single injection, mice, ref [79], cited from earlier work"}}, "note": "Entries after “also recorded” stand apart in the source; their conditions may differ. Where two headings read alike, the source gives them in different places."}
{"compound": "Nc1ncnc2c1ncn2[C@@H]1O[C@H](COP(=O)(O)OP(=O)(O)OP(=O)(O)O)[C@@H](O)[C@H]1O", "note": "[ATP, adenosine triphosphate]", "values": [{"measurement": "eradication of persister cells by ATP ligand alone", "setting": "[1]", "result": "No eradication was observed; also recorded: did not show bactericidal activity"}]}
{"compound": "NCC[C@H](O)C(=O)N[C@@H]1C[C@H](N)[C@@H](O[C@H]2O[C@H](CN)[C@@H](O)[C@H](O)[C@H]2O)[C@H](O)[C@H]1O[C@H]1O[C@H](CO)[C@@H](O)[C@H](N)[C@H]1O", "note": "[Amikacin]", "values": [{"measurement": "persister cells formed by A. baumannii in the presence of antibiotic", "setting": "[2]", "result": 0.07, "unit": "%"}, {"measurement": "inhibition zone diameter compared to the ancestor PAO1", "setting": "PAO1Cip21", "result": "decrease in inhibition zone diameter"}]}
{"compound": "CO/N=C(\\C(=O)N[C@@H]1C(=O)N2C(C(=O)[O-])=C(C[N+]3(C)CCCC3)CS[C@H]12)c1csc(N)n1", "note": "[Cefepime]", "values": [{"measurement": "inhibition zone diameter compared to the ancestor PAO1", "setting": "PAO1Cip21", "result": "decrease in inhibition zone diameter"}]}
{"compound": "CC(C)(O/N=C(\\C(=O)N[C@@H]1C(=O)N2C(C(=O)[O-])=C(C[n+]3ccccc3)CS[C@H]12)c1csc(N)n1)C(=O)O", "note": "[Ceftazidime]", "values": [{"measurement": "inhibition zone diameter compared to the ancestor PAO1", "setting": "PAO1Cip21", "result": "decrease in inhibition zone diameter"}]}
{"compound": "O=C(O)c1cn(C2CC2)c2cc(N3CCNCC3)c(F)cc2c1=O", "note": "[Ciprofloxacin]", "values": [{"measurement": "resistance development: increase in MIC", "setting": "P. aeruginosa (PAO1)", "result": "more than 250 fold"}]}
{"compound": "C[C@@H](O)[C@H]1C(=O)N2C(C(=O)O)=C(S[C@@H]3CN[C@H](C(=O)N(C)C)C3)[C@H](C)[C@H]12", "note": "[Meropenem]", "values": [{"measurement": "inhibition zone diameter compared to the ancestor PAO1", "setting": "PAO1Cip21", "result": "decrease in inhibition zone diameter"}]}
{"compound": "CC1COc2c(N3CCN(C)CC3)c(F)cc3c(=O)c(C(=O)O)cn1c23", "note": "(centres unmarked) [Ofloxacin]", "values": [{"measurement": "ROS production", "setting": "[3]", "result": 1.2, "unit": "fold-change"}, {"measurement": "resistance development: increase in MIC", "setting": "P. aeruginosa (PAO1)", "result": "> 1500", "unit": "fold"}]}
{"compound": "Cn1c2cccc(=O)c-2nc2ccccc21", "note": "[PYO, pyocyanin]", "values": [{"measurement": "increase of persister cells in the presence of PYO", "setting": "[2]; with amikacin", "result": 4, "unit": "fold"}, {"measurement": "increase of persister cells in the presence of PYO", "setting": "[2]; with carbenicillin", "result": 3, "unit": "fold"}]}
{"compound": "NC[C@H]1O[C@H](O[C@H]2[C@H](O)[C@@H](O[C@H]3O[C@H](CO)[C@@H](O)[C@H](N)[C@H]3O)[C@H](N)C[C@@H]2N)[C@H](N)C[C@@H]1O", "note": "[Tobramycin]", "values": [{"measurement": "resistance development: increase in MIC", "setting": "P. aeruginosa (PAO1)", "result": "more than 30 fold"}, {"measurement": "inhibition zone diameter compared to the ancestor PAO1", "setting": "PAO1Cip21", "result": "decrease in inhibition zone diameter"}]}
{"compound": "C[C@H]1[C@H](NC(=O)/C(=N\\OC(C)(C)C(=O)O)c2csc(N)n2)C(=O)N1S(=O)(=O)O", "note": "[aztreonam]", "values": [{"measurement": "inhibition zone diameter compared to the ancestor PAO1", "setting": "PAO1Cip21", "result": "decrease in inhibition zone diameter"}]}
{"compound": "CC1(C)S[C@@H]2[C@H](NC(=O)C(C(=O)O)c3ccccc3)C(=O)N2[C@H]1C(=O)O", "note": "(some centres unmarked) [carbenicillin]", "values": [{"measurement": "persister cells formed by A. baumannii in the presence of antibiotic", "setting": "[2]", "result": 0.02, "unit": "%"}]}
{"compound": "Colistin", "values": [{"measurement": "inhibition zone diameter compared to the ancestor PAO1", "setting": "PAO1Cip21", "result": "decrease in inhibition zone diameter"}, {"measurement": "cell lysis", "setting": "[4]", "result": "cause bacteria cell lysis"}]}
{"compound": "Polymyxin-B", "values": [{"measurement": "inhibition zone diameter compared to the ancestor PAO1", "setting": "PAO1Cip21", "result": "decrease in inhibition zone diameter"}]}
{"compound": "tobramycin sulphate", "values": [{"measurement": "LD50", "setting": "[5]; IP", "result": 262, "unit": "mg/kg"}, {"measurement": "LD50", "setting": "[5]; IV", "result": 77, "unit": "mg/kg"}]}
